Where two headings read alike, the source gives them in different places.
Key:
[1] = LPR test (test conditions analogous to ASTM D 2776); parameters: concentration or dose not given beside the values
Description: The products were also tested in the LPR test (test conditions analogous to ASTM D 2776).

[2] = Biodegradability (OECD 306)
Shaking foam test = assay type: physicochemical; conditions: 50 ml of a 3% aqueous solution in demineralized water shaken 20 times within 10 seconds; graded weakly foaming, foaming or highly foaming
Skeletonema costatum = test: Toxicity (EC50 Skeletonema costatum); assay type: cell-based
[3] = Shell wheel test (corrosion inhibition); conditions: carbon steel coupons in saltwater/petroleum mixture, pH 3.5, 70° C., 24 hours; 50 ppm of a 40% solution of the inhibitor; from mass decrease based on a blank value
Description: The inventive compounds were tested as corrosion inhibitors in the Shell wheel test. Coupons of carbon steel (DIN 1.1203 with surface area 15 cm^2) were immersed into a saltwater/petroleum mixture (9:1.5% NaCl solution adjusted to pH 3.5 with acetic acid) and exposed to this medium at a peripheral speed of 40 rpm at 70° C. for 24 hours. The dosage of the inhibitor was 50 ppm of a 40% solution of the inhibitor. The protection values were calculated from the mass decrease of the coupons based on a blank value.

Compound	Protection after 10 min [1]	Protection after 30 min [1]	Protection after 60 min [1]	Biodegradability ([2]; OECD 306)	Foaming behavior (Shaking foam test)	Toxicity EC50 (Skeletonema costatum)	Ø % protection [3]	EC50 (Skeletonema costatum)	Biodegradability [2]
N-Dodecyl-DL-methionine cyclohexylammonium salt [compound from example 3]	76.4%	88.4%	97.2%	84.0%	weakly foaming	22.3 µg/mL	78%		
N-Dodecyl-DL-methionine dibutylammonium salt [compound from example 4]	74.8%	87.3%	96.8%		weakly foaming		80%		
N-Oleyl-DL-methionine 2-(2-hydroxyethoxy)ethylammonium salt [compound from example 7]	78.5%	92.9%	98.5%		weakly foaming		82%		
CCCCCCCCNC(CCSC)C(=O)O.OCCN(CCO)CCO (racemic) [compound from example 2, N-Octyl-DL-methionine triethanolammonium salt]	62.9%	76.1%	90.0%		weakly foaming		72%		
CCCCCCCCCCCC(=O)NCC(=O)[O-].[Na+] [comparative 2, N-lauroylglycine sodium salt, reference compound]	15.4%	35.2%	42.9%	44.5%	highly foaming		45%	8.5 µg/mL	
CCCCCCCC/C=C\CCCCCCCCNC(CCSC)C(=O)O.OCCN(CCO)CCO (racemic) [compound from example 8, N-Oleyl-DL-methionine triethanolammonium salt]	80.1%	94.5%	98.6%		weakly foaming	13.6 µg/mL	85%		85.4%
N-Cocoyl-DL-methionine N,N-diethyl-(2-hydroxyethyl)-ammonium salt [compound from example 6]	92.0%	96.7%	99.0%			15.4 µg/mL	83%		
N-Cocoyl-DL-methionine morpholinium salt [compound from example 5]	90.3%	94.2%	98.9%				85%		
CCCCCCCCCCCCCC(=O)N[C@@H](CC(=O)[O-])C(=O)[O-].[Na+].[Na+] [comparative 3, N-myristoyl-L-aspartic acid disodium salt, reference compound]	20.0%	42.6%	47.1%	50.3%	highly foaming		38%	9.5 µg/mL	
CCCCCCCCNC(CCSC)C(=O)O.NCCO (racemic) [compound from example 1, N-Octyl-DL-methionine monoethanolammonium salt]	60.5%	75.3%	88.4%		weakly foaming	44.5 µg/mL	63%		92.4%
